Data set [1] in a line: Hydrodynamic diameter by dynamic light scattering. The class given is physicochemical. The following applies: DLS; for substrate size (Dh): biotinylated substrates, text and FIG. 10 legend. As for the experimental part:
Measuring conjugate hydrodynamic diameter: The DLS data was collected on a Malvern Zetasizer nano-ZS. Native avidin and avidin conjugates ([…]) were dissolved in 0.1 M sodium phosphate, pH 8. The hydrodynamic diameter (Dh) of the samples was measured three times (12 runs/measurement). Reported values are number distribution intensities.
Instrumentation and Sample Analysis Preparations: ^1H and ^13C NMR were recorded on a spectrometer (300 MHz, 75 MHz, Bruker Avance™ 300), with deuterium oxide (D2O), DMSO-d6, and CDCl3. Routine FT-IR spectra were obtained with a Nicolet Magna-IR 560 spectrometer (Thermo). UV-VIS spectra were obtained and used for protein concentration determination using a UV-VIS spectrometer (Lambda 2, PerkinElmer). Melting points (mp) were measured with a Laboratory Devices Mel-Temp. Number and weight average molecular weights (Mn and Mw) and the polydispersity index (Mw/Mn) were estimated by gel permeation chromatography (GPC) on a Water 2695 Series with a data processor, equipped with three columns (Waters Ultrahydrogel Linier, 500 and 250), using Dulbecco's Phosphate Buffered Saline with 0.02 wt % sodium azide as an eluent at flow rate 1.0 mL/min, with detection by a refractive index (RI) detector. Pullulan standards (PSS-Polymer Standards Service—USA Inc., Amherst, Mass.) were used for calibration. Matrix-Assisted Laser Desorption Ionization Time-of-Flight Spectrometry (MALDI-ToF MS) was performed with a Perseptive Biosystems Voyager Elite MALDI-TOF spectrometer. Dynamic Light Scattering (DLS) data were collected on a Malvern Zetasizer nano-ZS. The concentration of the sample solution was kept at 1.0 mg/mL. The hydrodynamic diameter of samples was measured three times (5 run to each measurement, reported as number distribution) in 0.1 M sodium phosphate, pH 8. Biotin and bio-PEG binding kinetics were measured using a stopped-flow spectrometer with fluorescence detection (Applied Photophysics SX20). […] The excitation wavelength was set to 295 nm and emission wavelength was monitored at 340 nm. […] Fluorescence was measured in volts.

In data set [2] the target is T1, native avidin (Gallus gallus, UniProt P02701).
T1 construct: Avidin is a tetrameric protein purified from egg white; purchased Lee Biosolutions; host or cells: egg white
Briefly: Biotin effect on quenched fluorescence. The format is binding. The following applies: native avidin 5 μM; free initiator or free initiation inhibitor 5.12 mM; biotin 10 μM. On the procedure: Biotin effect on quenched fluorescence: […] Free initiator (10 μL, final concentrations 5.12 mM) or free initiation inhibitor (10 μL, final concentrations 5.12 mM) were added to avidin solution and florescence intensities were measured. After the fluorescence intensities were recorded with free initiator or free initiation inhibitor, biotin (10 μL, final concentration 10 μM) was added to the mixture and fluorescence intensities were measured again.

The target in data set [3] is T1, native avidin. The data set is described as follows: Tryptophan fluorescence quenching assay. The format is binding. The following applies: native avidin 5 μM; added at 20 μM-5.12 mM. On the procedure: Tryptophan fluorescence quenching assay: Intrinsic tryptophan fluorescence intensity of native avidin (180 μL, final concentration 5 μM) was measured at an excitation wavelength of 270 nm and emission of 300-400 nm in a 96-well plate. N-2-bromo-2-methylpropanoyl-β-alanine (free initiator) (20 μL, final concentrations 20 μM, 80 μM, 320 μM, 1.28 mM, 5.12 mM) or N-2-methylpropanoyl-β-alanine (free initiation inhibitor) (20 μL, final concentrations 20 μM, 80 μM, 320 μM, 1.28 mM, 5.12 mM) were added to native avidin and tryptophan fluorescence was measured again.

The nature of data set [4]: Stopped-flow biotin-PEG binding kinetics, 30 kDa. Conditions: avidin 0.5 μM, biotin-PEG 5.0 μM, 0.1 M phosphate buffer pH 8. As for the experimental part:
(§1) Biotin and biotin PEG binding kinetics: Kinetic measurements of avidin-pCBMA conjugates with biotin and biotin-PEG substrates were taken using a stopped-flow spectrometer with fluorescence detection (Applied Photophysics SX20). The dead time of the instrument was 2 ms. The excitation wavelength was 270 nm with 5 nm bandwidth. Instrument permitted to collect 1000 data points throughput the reaction (0.1-450 s). For all experiments avidin concentration was 0.5 μM (final) and biotin or biotin-PEG concentration was 5.0 μM (final). Reactions were initiated by mixing equal volumes of avidin with its substrates in 0.1 M phosphate buffer, pH 8. Fluorescence was measured in volts. Data were fit to single exponential functions using F(t)=F∞·ΔFexp(−kobst) equation, where, kobs is the observed first-order rate constant, F∞ is the final value of fluorescence and ΔF is the amplitude. In case of native avidin kinetics the data were fit to single exponential functions using F(t)=F∞+ΔFexp(−kobst) equation, where, kobs is the observed first-order rate constant, F∞ is the final value of fluorescence and ΔF is the amplitude. […]
(§2) Instrumentation and Sample Analysis Preparations: ^1H and ^13C NMR were recorded on a spectrometer (300 MHz, 75 MHz, Bruker Avance™ 300), with deuterium oxide (D2O), DMSO-d6, and CDCl3. […] Melting points (mp) were measured with a Laboratory Devices Mel-Temp. […]

A short description of data set [5]: Stopped-flow binding kinetics of biotin to avidin and avidin-pCBMA conjugates. The following applies: kobs first-order, avidin 0.5 μM, biotin 5.0 μM, 0.1 M phosphate buffer pH 8. As for the experimental part: as §1, §2
Data set [6] in a line: Stopped-flow biotin-PEG binding kinetics, 550 Da. Conditions: for Biotin-PEG 550 Da k/s^−1: avidin 0.5 μM, biotin-PEG 5.0 μM, 0.1 M phosphate buffer pH 8. As for the experimental part: Biotin and biotin PEG binding kinetics: Kinetic measurements of avidin-pCBMA conjugates with biotin and biotin-PEG substrates were taken using a stopped-flow spectrometer with fluorescence detection (Applied Photophysics SX20). The dead time of the instrument was 2 ms. The excitation wavelength was 270 nm with 5 nm bandwidth. Instrument permitted to collect 1000 data points throughput the reaction (0.1-450 s). For all experiments avidin concentration was 0.5 μM (final) and biotin or biotin-PEG concentration was 5.0 μM (final). Reactions were initiated by mixing equal volumes of avidin with its substrates in 0.1 M phosphate buffer, pH 8. Fluorescence was measured in volts. Data were fit to single exponential functions using F(t)=F∞·ΔFexp(−kobst) equation, where, kobs is the observed first-order rate constant, F∞ is the final value of fluorescence and ΔF is the amplitude. In case of native avidin kinetics the data were fit to single exponential functions using F(t)=F∞+ΔFexp(−kobst) equation, where, kobs is the observed first-order rate constant, F∞ is the final value of fluorescence and ΔF is the amplitude. All data analysis was performed in Microsoft Excel.
Instrumentation and Sample Analysis Preparations: ^1H and ^13C NMR were recorded on a spectrometer (300 MHz, 75 MHz, Bruker Avance™ 300), with deuterium oxide (D2O), DMSO-d6, and CDCl3. Routine FT-IR spectra were obtained with a Nicolet Magna-IR 560 spectrometer (Thermo). UV-VIS spectra were obtained and used for protein concentration determination using a UV-VIS spectrometer (Lambda 2, PerkinElmer). Melting points (mp) were measured with a Laboratory Devices Mel-Temp. […] The hydrodynamic diameter of samples was measured three times (5 run to each measurement, reported as number distribution) in 0.1 M sodium phosphate, pH 8. Biotin and bio-PEG binding kinetics were measured using a stopped-flow spectrometer with fluorescence detection (Applied Photophysics SX20). […] The excitation wavelength was set to 295 nm and emission wavelength was monitored at 340 nm. […] Fluorescence was measured in volts.

Data set [7] is described as follows: Stopped-flow biotin-PEG binding kinetics, 10 kDa. The following applies: avidin 0.5 μM, biotin-PEG 5.0 μM, 0.1 M phosphate buffer pH 8. On the procedure:
as §1, §2

Data set [8] in a line: Stopped-flow biotin-PEG binding kinetics, 5 kDa. The following applies: avidin 0.5 μM, biotin-PEG 5.0 μM, 0.1 M phosphate buffer pH 8. On the procedure:
as §1, §2

A further data set relates to Biotin-HRP. The data set is described as follows: Stopped-flow biotin-protein binding kinetics, biotin-HRP. The following applies: avidin 0.5 μM, biotin-protein 5.0 μM, 0.1 M phosphate buffer pH 8. As for the experimental part: (§3) The solution was stirred at 4° C. for 2 hours and protein-biotin conjugates were purified by dialysis using 15 kDa molecular mass cutoff dialysis tube in deionized water and then lyophilized.
(§4) Biotin-Protein binding kinetics: For biotinylated protein binding kinetics avidin conjugates (0.5 μM final) were mixed with biotin-protein (5.0 μM final) in a stopped-flow accessory on PTI QuantaMaster-400 fluorometer (Horiba Instruments Inc.). The dead time of the instrument was 60 ms. The excitation wavelength was 295 nm (to selectively excite tryptophan residues) with a 20 nm bandwidth (Skelly et al., FEBS Lett 262:127-130, 1990). Excitation occurred through a 1.96-mm path in the stopped-flow optical cell, and emission was measured through a 7.68-mm path. […]
(§5) Instrumentation and Sample Analysis Preparations: ^1H and ^13C NMR were recorded on a spectrometer (300 MHz, 75 MHz, Bruker Avance™ 300), with deuterium oxide (D2O), DMSO-d6, and CDCl3. […] Melting points (mp) were measured with a Laboratory Devices Mel-Temp. […] The hydrodynamic diameter of samples was measured three times (5 run to each measurement, reported as number distribution) in 0.1 M sodium phosphate, pH 8. Biotin and bio-PEG binding kinetics were measured using a stopped-flow spectrometer with fluorescence detection (Applied Photophysics SX20). […] The excitation wavelength was set to 295 nm and emission wavelength was monitored at 340 nm. […]

The next data set concerns the target T2, Biotin-aprotinin (Bos taurus, UniProt P00974).
T2 construct: purchased Sigma Aldrich
The data set is described as follows: Stopped-flow biotin-protein binding kinetics, biotin-aprotinin. Conditions: avidin 0.5 μM, biotin-protein 5.0 μM, 0.1 M phosphate buffer pH 8. As for the experimental part:
as §3, §4, §5

For data set [9] the following is noted: work described elsewhere (Kurzban et al.); 337 to 324 nm, blue shift in emission; cited from earlier work.
The mark [10] stands for this setting: Table 4, low-density avidin conjugates.
The mark [11] stands for this setting: Table 9, high-density avidin conjugates.

With Aprotinin [reference compound], the “Dh (hydrodynamic size)” value in data set [1] (bio-pro substrates, Table 3) amounted to 2.4 ± 0.4. In addition, the entries for the “substrate size (Dh)” value in data set [1] (listed as biotin-aprotinin) and in data set [1] (listed as biotinylated aprotinin) were 2.4±0.4 nm and 2.4 nm, respectively.
As to `O=C(O)CCCC[C@@H]1SC[C@@H]2NC(=O)N[C@@H]21` [biotin], the “effect on tryptophan fluorescence of native avidin incubated with free initiator or free initiation inhibitor” value on native avidin [2] is given as “restored the quenched tryptophan fluorescence”.
Regarding `CC(C)C(=O)NCCC(=O)O` [free initiation inhibitor, N-2-methylpropanoyl-β-alanine], at native avidin [2], the “effect on tryptophan fluorescence of native avidin incubated with free initiator or free initiation inhibitor” value is on record as “did not have effect on fluorescence”. In addition, the “quenching of native avidin tryptophan fluorescence” value on native avidin [3] is listed as “None of the tested concentrations of initiation inhibitor had an effect on fluorescence”.
On to Native avidin, for which the “Biotin-PEG 30 kDa k/s^−1” value in data set [4] (setting [10]) and in data set [4] (setting [11]) was 5.89 s⁻¹ in each case. Moreover, the “Biotin k/s^−1” value in data set [5] (setting [10]) and in [5] (setting [11]) was 105.21 s⁻¹ in each case. Moreover, the “Biotin-PEG 550 Da k/s^−1” value in data set [6] (setting [10]) and in [6] (setting [11]) was 20.93 s⁻¹ throughout. In addition, the “binding rate of biotin-PEG 550 Da, slower than biotin” value in [6] (relative to biotin binding rate) is 80%. Moreover, the “Biotin-PEG 10 kDa k/s^−1” value in data set [7] (setting [10]) and in data set [7] (setting [11]) was 12.02 s⁻¹ in each case. Further, the “Biotin-PEG 5 kDa k/s^−1” value in data set [8] (setting [10]) and in [8] (setting [11]) was 17.02 s⁻¹ throughout. The “Biotin-HRP k/s^−1” value with Biotin-HRP (setting [10]) and in the data set with Biotin-HRP (setting [11]) was 5.03 s⁻¹ throughout. For the same molecule, the “Biotin-aprotinin k/s^−1” value with Biotin-aprotinin (setting [10]) and with Biotin-aprotinin (setting [11]) was 73.45 s⁻¹ throughout. The “intrinsic tryptophan fluorescence of avidin upon biotin binding” value in [9] was “decreased”.
As to `CC(C)(Br)C(=O)NCCC(=O)O` [free initiator, N-2-bromo-2-methylpropanoyl-β-alanine], the “quenching of native avidin tryptophan fluorescence” value on native avidin [3] is given as “higher degree of fluorescence quenching”.

Values taken from patent US20210388337A1, “PROTEIN-POLYMER CONJUGATES AND METHODS FOR THEIR PREPARATION” (Carnegie Mellon University, priority 2018, published 2021).
